38 molecules from US12150995B2, “IRAK degraders and uses thereof” (Kymera Therapeutics, Inc., priority 2020, dated 2024) can be followed below.

The target of the experiment is T1, IRAK4 (Homo sapiens, UniProt Q9NWZ3).
T1 construct: endogenous in cells; host or cells: OCI-LY10
T1 sequence (Q9NWZ3 1-460): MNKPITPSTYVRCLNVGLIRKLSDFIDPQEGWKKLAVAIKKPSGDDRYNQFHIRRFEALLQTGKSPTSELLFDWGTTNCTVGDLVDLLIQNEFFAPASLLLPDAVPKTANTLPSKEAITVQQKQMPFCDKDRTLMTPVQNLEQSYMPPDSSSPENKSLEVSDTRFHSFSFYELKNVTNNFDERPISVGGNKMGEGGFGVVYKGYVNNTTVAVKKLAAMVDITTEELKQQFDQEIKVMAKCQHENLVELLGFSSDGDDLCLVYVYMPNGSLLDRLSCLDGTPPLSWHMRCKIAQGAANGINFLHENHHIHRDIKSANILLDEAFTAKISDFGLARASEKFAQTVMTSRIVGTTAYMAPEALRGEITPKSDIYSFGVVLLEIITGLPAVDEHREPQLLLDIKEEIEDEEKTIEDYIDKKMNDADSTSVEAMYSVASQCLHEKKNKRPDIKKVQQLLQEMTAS
The experiment can be described thus: IRAK4 MSD Degradation in OCI-LY10. To be noted: OCI-LY10 cells, Meso Scale Discovery, incubated 4 to 24 hours. In kind it is cell-based. In short, it runs like this: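 IRAK4 degradation was quantified by Meso Scale electrochemiluminescence (anti-IRAK4 capture and detection antibodies) in lysates of treated OCI-LY10 cells. Compounds were dosed at 8 concentrations (1:3 dilutions, top 1 to 10 μM) for 4 to 24 h; DC50 derived by three-parameter logistic fitting.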

On to `CC(C)Nc1c(C(=O)N[C@H]2CC[C@H](CN3CCN(c4cccc5c(N6CCC(=O)NC6=O)cncc45)CC3)CC2)cnc2c1Oc1ccc(C#N)cc1O2` [I-408], for which the DC50 – broadly, the concentration giving 50% degradation – was over 0.2 µM. Then `CC(C)(O)c1cc2nc([C@H]3CC[C@H](CN4CC5(CC(CCNc6cccc7c6C(=O)N(C6CCC(=O)NC6=O)C7=O)C5)C4)CC3)[nH]c2cc1NC(=O)c1cccc(C(F)(F)F)n1` (some centres unmarked) [I-14], with 0.05 to 0.1 µM.

`COc1cc2nn([C@H]3CC[C@H](CN4CCN(c5c(OC)ccc6c5n(C)c(=O)n6C5CCC(=O)NC5=O)CC4)CC3)cc2cc1NC(=O)c1cccc(C(F)(F)F)n1` (some centres unmarked) [I-364] showed a DC50 of under 0.01 µM. In turn, `Cc1c(C2CCN(C[C@H]3CC[C@H](n4cc5cc(NC(=O)c6cccc(C(F)(F)F)n6)ccc5n4)CC3)CC2)ccc2c1n(C)c(=O)n2C1CCC(=O)NC1=O` (some centres unmarked) [I-202] gave a DC50 of over 0.2 µM. Then `Cc1cccc(C(=O)Nc2cc3sc([C@H]4CC[C@H](CN5CCO[C@H](CCCNc6cccc7c6C(=O)N(C6CCC(=O)NC6=O)C7=O)C5)CC4)nc3cc2C(C)(C)O)n1` (some centres unmarked) [I-477], with 0.1 to 0.2 µM. Molecule `Cn1c(=O)n(C2CCC(=O)NC2=O)c2cccc(C3CCN(C[C@H]4CC[C@H](n5cc6cc(NC(=O)c7cccc(C(F)(F)F)n7)c(N7C[C@H]8C[C@@H]7CO8)cc6n5)CC4)CC3)c21` (some centres unmarked) [I-44] gave a DC50 of under 0.01 µM. Then `CN(CCCO[C@H]1C[C@H](Nc2cccc3c2C(=O)N(C2CCC(=O)NC2=O)C3=O)C1)C[C@H]1CC[C@H](n2cc3cc(NC(=O)c4cccc(C(F)(F)F)n4)ccc3n2)CC1` (some centres unmarked) [I-354], with over 0.2 µM; and `COc1cc2nc([C@H]3CC[C@H](CN(C)CCCCNc4cccc5c4C(=O)N(C4CCC(=O)NC4=O)C5=O)CC3)sc2cc1NC(=O)c1cncc(C#N)c1` (some centres unmarked) [I-456], with over 0.2 µM. Consider `COc1cc2nn([C@H]3CC[C@H](CN4CCC(c5cccc6c(N7CCC(=O)NC7=O)cncc56)CC4)CC3)cc2cc1NC(=O)c1cc(F)cc(C(F)(F)F)c1` [I-123], for which the DC50 fell in the range of 0.01 to 0.05 µM. In turn, `Cn1c(=O)n(C2CCC(=O)NC2=O)c2cc(F)cc(C3CCN(C[C@H]4CC[C@H](n5cc6cc(NC(=O)c7cccc(C(F)(F)F)n7)c(F)cc6n5)CC4)CC3)c21` (some centres unmarked) [I-26] yielded a DC50 of under 0.01 µM. The figure for `COc1cc2nn([C@H]3CC[C@H](CN4CCC(c5c(C)ccc6c5n(C)c(=O)n6C5CCC(=O)NC5=O)CC4)CC3)cc2cc1NC(=O)c1cncc(C(F)(F)F)c1` (some centres unmarked) [I-108] is under 0.01 µM; for `Cn1c(=O)n(C2CCC(=O)NC2=O)c2cccc(C3CCN(C[C@H]4CC[C@H](n5cc6cc(NC(=O)c7cccc(C(F)(F)F)n7)c(N7C[C@@H]8C[C@H]7CO8)cc6n5)CC4)CC3)c21` (some centres unmarked) [I-55] it is 0.01 to 0.05 µM. `COc1cc2nc([C@H]3CC[C@H](CN(C)CCNc4cccc5c4C(=O)N(C4CCC(=O)NC4=O)C5=O)CC3)sc2cc1NC(=O)c1cncc(Cl)c1` (some centres unmarked) [I-484] gave a DC50 of over 0.2 µM. `Cn1c(=O)n(C2CCC(=O)NC2=O)c2cc(Cl)cc(C3CCN(C[C@H]4CC[C@H](n5cc6cc(NC(=O)c7cccc(C(F)(F)F)n7)c(F)cc6n5)CC4)CC3)c21` (some centres unmarked) [I-72]: the DC50 lay within 0.01 to 0.05 µM.

Take `COc1cc2nn([C@H]3CC[C@H](CN(C)C4CCN(c5cc(Cl)cc6c5n(C)c(=O)n6C5CCC(=O)NC5=O)CC4)CC3)cc2cc1NC(=O)c1cccc(C(F)(F)F)n1` (some centres unmarked) [I-54]: the DC50 is under 0.01 µM. In turn, `Cc1cccc(C(=O)Nc2cc3sc([C@H]4CC[C@H](CN5CCO[C@@H](CCCNc6cccc7c6C(=O)N(C6CCC(=O)NC6=O)C7=O)C5)CC4)nc3cc2C(C)(C)O)n1` (some centres unmarked) [I-472] showed a DC50 of 0.05 to 0.1 µM. The figure for `COc1cc2nn([C@H]3CC[C@H](CN4CCC(O[C@H]5C[C@H](c6cccc7c6n(C)c(=O)n7C6CCC(=O)NC6=O)C5)CC4)CC3)cc2cc1NC(=O)c1cccc(C(F)(F)F)n1` (some centres unmarked) [I-386] is 0.01 to 0.05 µM; for `COc1cc2nn([C@H]3CC[C@H](CN(C)C4CCN(c5cccc6c5n(C)c(=O)n6C5CCC(=O)NC5=O)CC4)CC3)cc2cc1NC(=O)c1cncc(C#N)c1` (some centres unmarked) [I-71, 5-cyano-N-[2-[4-[[[1-[1-(2,6-dioxo-3-piperidyl)-3-methyl-2-oxo-benzimidazol-4-yl]-4-piperidyl]-methyl-amino]methyl]cyclohexyl]-6-methoxy-indazol-5-yl]pyridine-3-carboxamide] it is under 0.01 µM; for `COc1cc2nn([C@H]3CC[C@H](CN4CCN(c5cccc6c5n(C)c(=O)n6C5CCC(=O)NC5=O)C[C@@H]4C)CC3)cc2cc1NC(=O)c1cccc(C(F)(F)F)n1` (some centres unmarked) [I-246] it is 0.01 to 0.05 µM.

For `COc1ccc2c(c1N1CCN(C[C@H]3CC[C@H](NC(=O)c4cnc(-c5ccc6cc(C#N)cnn56)cc4NC(C)C)CC3)CC1)n(C)c(=O)n2C1CCC(=O)NC1=O` (some centres unmarked) [I-395], the DC50 was under 0.01 µM.

On to `COc1cc2nn([C@H]3CC[C@H](CN4CCN(c5ccc6c(N7CCC(=O)NC7=O)cncc6c5OC)CC4)CC3)cc2cc1NC(=O)c1cccc(C(F)(F)F)n1` [I-376], for which the DC50 was 0.01 to 0.05 µM. `O=C1CCC(N2C(=O)c3cccc(NCCC4CC5(C4)CN(C[C@H]4CC[C@H](n6cc7cc(NC(=O)c8cccc(C(F)(F)F)n8)c(OC8CC8)cc7n6)CC4)C5)c3C2=O)C(=O)N1` (some centres unmarked) [I-2] gave a DC50 of over 0.2 µM. Then `COc1cc2nn([C@H]3CC[C@H](CN(C)C4CCN(c5cccc6c5n(C)c(=O)n6C5CCC(=O)NC5=O)CC4)CC3)cc2cc1NC(=O)c1cncc(Cl)c1` (some centres unmarked) [I-80], with under 0.01 µM; and `COc1cc2nn([C@H]3C[C@H](CN(C)C4CCN(c5cccc6c5n(C)c(=O)n6C5CCC(=O)NC5=O)CC4)C3)cc2cc1NC(=O)c1cccc(C(F)(F)F)n1` (some centres unmarked) [I-31, N-[2-[3-[[[1-[1-(2,6-dioxo-3-piperidyl)-3-methyl-2-oxo-benzimidazol-4-yl]-4-piperidyl]-methyl-amino]methyl]cyclobutyl]-6-methoxy-indazol-5-yl]-6-(trifluoromethyl)pyridine-2-carboxamide], with under 0.01 µM.

As for `Cn1c(=O)n(C2CCC(=O)NC2=O)c2ccc(F)c(C3CCN(C[C@H]4CC[C@H](n5cc6cc(NC(=O)c7cccc(C#N)n7)ccc6n5)CC4)CC3)c21` (some centres unmarked) [I-128], the DC50 is under 0.01 µM.

For the molecule `CN(C)c1cc2nn([C@H]3CC[C@H](CN4CCC(c5cccc6c5n(C)c(=O)n6C5CCC(=O)NC5=O)CC4)CC3)cc2cc1NC(=O)c1cccc(C(F)(F)F)n1` (some centres unmarked) [I-107], the DC50 is under 0.01 µM. The figure for `Cc1ccc2c(c1C1CCN(C[C@H]3CC[C@H](n4cc5cc(NC(=O)c6cccc(C(F)(F)F)n6)ccc5n4)CC3)CC1)n(C)c(=O)n2C1CCC(=O)NC1=O` (some centres unmarked) [I-99] is under 0.01 µM; for `Cn1c(=O)n(C2CCC(=O)NC2=O)c2cccc(N3CCN(C[C@H]4CC[C@H](n5cc6cc(NC(=O)c7cccc(C(F)(F)F)n7)ccc6n5)CC4)CC3)c21` (some centres unmarked) [I-209] it is under 0.01 µM. With `CC(C)(O)c1cc2nc([C@H]3CC[C@H](CN4CC5(CC(CCNc6cccc7c6C(=O)N(C6CCC(=O)NC6=O)C7=O)C5)C4)CC3)cn2cc1NC(=O)c1cccc(C(F)(F)F)n1` (some centres unmarked) [I-12], the half-maximal degradation concentration (DC50) was 0.01 to 0.05 µM.

As to `Cn1c(=O)n(C2CCC(=O)NC2=O)c2ccc(Cl)c(C3CCN(C[C@H]4CC[C@H](n5cc6cc(NC(=O)c7cccc(C(F)(F)F)n7)ncc6n5)CC4)CC3)c21` (some centres unmarked) [I-88], the DC50 lay within 0.01 to 0.05 µM. The figure for `CC(C)Nc1cc(-n2ccc3cc(C#N)cnc32)ncc1C(=O)NC[C@H]1CC[C@H](CN(C)C2CCN(c3cccc4c3n(C)c(=O)n4C3CCC(=O)NC3=O)CC2)CC1` (some centres unmarked) [I-84] is 0.05 to 0.1 µM; for `Cn1c(=O)n(C2CCC(=O)NC2=O)c2cccc(N3CCN(C[C@H]4CC[C@H](n5cc6cc(NC(=O)c7cccc(C(F)(F)F)n7)c(N7CCCC7)cc6n5)CC4)CC3)c21` (some centres unmarked) [I-392] it is 0.01 to 0.05 µM. The figure for `COc1cc2nn([C@H]3CC[C@H](CN4CCN(c5cccc6c(N7CCC(=O)NC7=O)cncc56)CC4)CC3)cc2cc1NC(=O)c1cccc(C(F)(F)F)n1` [I-211] is under 0.01 µM. `Cc1cc2nn([C@H]3CC[C@H](CN4C[C@@H]5C[C@H]4CN5c4cccc5c4n(C)c(=O)n5C4CCC(=O)NC4=O)CC3)cc2cc1NC(=O)c1cccc(C(F)(F)F)n1` (some centres unmarked) [I-303]: the DC50 is under 0.01 µM.

As to `COc1cc2nn([C@H]3CC[C@H](CN4CCC(c5c(C)ccc6c5n(C)c(=O)n6C5CCC(=O)NC5=O)CC4)CC3)cc2cc1NC(=O)c1cncc(Cl)c1` (some centres unmarked) [I-110], the DC50 was under 0.01 µM.

In turn, `COc1cc2nn([C@H]3CC[C@H](CN4CCN(c5cccc6c5n(C)c(=O)n6C5CCC(=O)NC5=O)CC4)CC3)cc2cc1NC(=O)c1cccc(C(F)(F)F)c1F` (some centres unmarked) [I-216] had a DC50 of under 0.01 µM. The figure for `COc1cc2nn([C@H]3CC[C@H](CN(C)C4CCN(c5cccc6c5n(C)c(=O)n6C5CCC(=O)NC5=O)CC4)CC3)cc2cc1NC(=O)c1cc(F)cc(C(F)(F)F)c1` (some centres unmarked) [I-131] is 0.01 to 0.05 µM. Then `COc1cc2nn([C@H]3C[C@H](CN4CC(c5cccc6c5n(C)c(=O)n6C5CCC(=O)NC5=O)C4)C3)cc2cc1NC(=O)c1cccc(C(F)(F)F)n1` (some centres unmarked) [I-46, N-[2-[3-[[3-[1-(2,6-dioxo-3-piperidyl)-3-methyl-2-oxo-benzimidazol-4-yl]azetidin-1-yl]methyl]cyclobutyl]-6-methoxy-indazol-5-yl]-6-(trifluoromethyl)pyridine-2-carboxamide], with 0.01 to 0.05 µM.
